Like-named read-outs stand apart in the source and are kept apart here.
Legend:
[1] = system: NCI-H460 (NSCLC) cell line; experiment: Cancer cell cytotoxicity assay (Calcein AM / Cell Titer-Glo), NCI-H460; type: cell-based, human
Method: (§1) Compounds of the invention and comparative compounds were assayed in three cancer cell lines to confirm cytotoxic activity and to set a range of concentrations to use in subsequent assays. All cell lines were maintained in RPMI medium 1640 supplemented with 10% (wt/vol) fetal bovine serum and penicillin-streptomycin (100 units/ml and 100 μg/ml). Cells were routinely checked for microbial or mycoplasma contamination and if necessary replaced. Cells were harvested by trypsinization using 0.25% trypsin and 0.1% EDTA and then counted in a ViCell XR coulter counter in duplicate, before and after dilution for assay plating. Between four to nine different types of human cancer cells were plated at a density of 10,000-15,000 cells per well of each 96-well black tissue culture treated microtiter plate, then were grown for 1 hour at 37° C. with 5% CO2/95% air in a humidified incubator to allow cells to attach before compound addition. Compound stocks (100×) were prepared in 96-well V-bottom polypropylene microtiter plates. Five serial (1:2) dilutions were made with anhydrous DMSO at 100× the final concentration used in the assay. The individual wells in compound-containing […] well plates were diluted 1:10 with complete cell culture medium and the 10× (10 μL) stocks were added to 90 μl of cells in each plate to ensure full mixing of stocks with culture media by using a Biomek FX liquid handler with 96-well head. Doxorubicin was used as the control to monitor the behavior of each cell line. Cells were incubated with the compounds for 3 to 4 days before fluorescence and luminescence reading. Test plates were removed from the incubator and washed once in sterile PBS to remove serum containing calcium esterases. Calcein AM (acetoxymethyl ester) reagent was added and the cells were incubated for 30 min at 37° C. Plates were read for emission by using a fluorescein filter (excitation 485 nm, emission 535 nm). An equal volume (30 μL) of Cell Titer-Glo reagent (Promega Corporation, Inc.) was added and incubated for 10 min at room temperature with gentle agitation to lyse the cells. Each plate was re-read for luminescence to confirm the inhibition observed in the fluorescent […] assay as a measure of cell viability. The cancer cell cytotoxicity assays were run in triplicate using ≧5 different drug concentrations, and the data were analyzed to establish statistical significance and a valid IC50 value for inhibition of cell growth, based on ≧2 log differences in drug effect.
(§2) The cancer cell cytotoxicities (determined substantially according to the method of Example 5) of various compounds of the invention and comparative compounds as determined in four to five different human cancer cell lines are shown in Table 1. The structures of the compounds listed are found in FIGS. 2-4.

A549 (NSCLC) cell line [2] = experiment: Cancer cell cytotoxicity assay (Calcein AM / Cell Titer-Glo), A549; type: cell-based, human
Method: as §1, §2

[3] = system: HT29 (Colorectal) cell line; experiment: Cancer cell cytotoxicity assay (Calcein AM / Cell Titer-Glo), HT29; type: cell-based, human
Method: as §1, §2

human cancer cell lines = experiment: Cancer cell cytotoxicity, summary over four to five human cancer cell lines; type: cell-based; settings: read-out: IC50 values (cancer cell cytotoxicity)
Method: as §1, §2

[4] = system: SKOV3 (Ovarian) cell line; experiment: Cancer cell cytotoxicity assay (Calcein AM / Cell Titer-Glo), SKOV3; type: cell-based, human
Method: as §1, §2

H1299 (NSCLC) cell line = experiment: Cancer cell cytotoxicity assay (Calcein AM / Cell Titer-Glo), H1299; type: cell-based, human
Method: as §1, §2

A549 (NSCLC) cell line [5] = settings: footnote 2: data from Langenhan et al. 2005; cited from earlier work
[6] = system: NCI-H460 (NSCLC) cell line; settings: footnote 2: data from Langenhan et al. 2005; cited from earlier work
[7] = system: SKOV3 (Ovarian) cell line; settings: footnote 2: data from Langenhan et al. 2005; cited from earlier work
[8] = Homo sapiens, NCI-H460, NSCLC, footnote 5: determined at same time as CEN08-193
[9] = Homo sapiens, A549, NSCLC, footnote 5: determined at same time as CEN08-193
[10] = Homo sapiens, HT-29, Colorectal, footnote 5: determined at same time as CEN08-193
[11] = Homo sapiens, SK-OV-3, Ovarian, footnote 5: determined at same time as CEN08-193
[12] = Homo sapiens, NCI-H1299, NSCLC, footnote 5: determined at same time as CEN08-193
[13] = NSCLC, footnote 3: determined at same time as CEN07-117 and -121
[14] = NSCLC, footnote 5: determined at same time as CEN08-193
[15] = NSCLC, footnote 7: determined at same time as CEN08-180
[16] = Colorectal, footnote 3: determined at same time as CEN07-117 and -121
[17] = Homo sapiens, NCI-H460, NSCLC, footnote 6: determined at same time as CEN08-243 and -244
[18] = Homo sapiens, A549, NSCLC, footnote 6: determined at same time as CEN08-243 and -244
[19] = Homo sapiens, SK-OV-3, Ovarian, footnote 6: determined at same time as CEN08-243 and -244
[20] = Homo sapiens, NCI-H1299, NSCLC, footnote 6: determined at same time as CEN08-243 and -244
[21] = Ovarian, footnote 3: determined at same time as CEN07-117 and -121
[22] = Ovarian, assay set not specified

With `C[C@]12CCC(OC3OC[C@H](O)[C@@H](O)[C@@H]3O)C[C@H]1CCC1C2CC[C@]2(C)[C@@H](C3=CCOC3=O)CC[C@]12O` (stereo partly shown) [CEN08-193] as the compound, how does the IC50 [1, 8] read?
Its IC50 is 0.009 µM.

And the IC50 (A549 (NSCLC) cell line [2]; [9])?
The IC50 was 0.004 µM.

What about the IC50 [3, 10] of the same compound?
Its IC50 is 0.011 µM.

What about the IC50 (human cancer cell lines) of the same compound?
The IC50 was under 0.08 µM.

What about the IC50 [4, 11] of the same compound?
Its IC50 is 0.051 µM.

And the IC50 (H1299 (NSCLC) cell line; [12])?
Its IC50 is 0.006 µM.

With `CON(C1CCC2(C)C(CCC3C2CCC2(C)C(C4=CC(=O)OC4)CCC32O)C1)C1OCC(O)C(O)C1O` [CEN07-W-101 (23S), reference compound] as the compound, how does the IC50 (A549 (NSCLC) cell line [5]) read?
The IC50 was 0.079 µM.

What about the IC50 [1, 13] of the same compound?
The IC50 was 0.15 µM.

What about the IC50 [1, 14] of the same compound?
Its IC50 is 0.008 µM.

And the IC50 [1, 15]?
Its IC50 is 0.037 µM.

And the IC50 [6]?
The IC50 was 0.08 µM.

What about the IC50 (A549 (NSCLC) cell line [2]; [13]) of the same compound?
The IC50 was 0.05 µM.

And the IC50 (A549 (NSCLC) cell line [2]; [14])?
Its IC50 is 0.004 µM.

And the IC50 (A549 (NSCLC) cell line [2]; [15])?
The IC50 was 0.009 µM.

And the IC50 [3, 16]?
The IC50 was 0.1 µM.

And the IC50 ([3]; Colorectal, footnote 5: determined at same time as CEN08-193)?
Its IC50 is 0.009 µM.

And the IC50 ([3]; Colorectal, footnote 7: determined at same time as CEN08-180)?
Its IC50 is 0.046 µM.

And the IC50 [7]?
Its IC50 is 0.22 µM.

And the IC50 ([4]; Ovarian, footnote 5: determined at same time as CEN08-193)?
The IC50 was 0.039 µM.

What about the IC50 ([4]; Ovarian, footnote 7: determined at same time as CEN08-180) of the same compound?
The IC50 was 0.051 µM.

And the IC50 (H1299 (NSCLC) cell line; NSCLC, assay set not specified)?
Its IC50 is 0.017 µM.

What about the IC50 (H1299 (NSCLC) cell line; [13]) of the same compound?
Its IC50 is 0.17 µM.

What about the IC50 (H1299 (NSCLC) cell line; [14]) of the same compound?
The IC50 was 0.006 µM.

What does the source list for `C[C@@H]1O[C@@H](O[C@@H]2C=C3CC[C@@H]4[C@H](CC[C@]5(C)[C@@H](c6ccc(=O)oc6)CC[C@]45O)[C@@]3(C)CC2)[C@H](O)[C@H](O)[C@H]1O` [proscillaridin, reference compound]?
IC50 [1, 17]: 0.012 µM; IC50 ([1]; Homo sapiens, NCI-H460, NSCLC, footnote 7: determined at same time as CEN08-180): 0.011 µM; IC50 [1, 8]: 0.005 µM; IC50 (A549 (NSCLC) cell line [2]; [18]): 0.012 µM; IC50 (A549 (NSCLC) cell line [2]; Homo sapiens, A549, NSCLC, footnote 7: determined at same time as CEN08-180): 0.003 µM; IC50 (A549 (NSCLC) cell line [2]; [9]): 0.002 µM; IC50 ([3]; Homo sapiens, HT-29, Colorectal, footnote 7: determined at same time as CEN08-180): 0.01 µM; IC50 [3, 10]: 0.007 µM; IC50 ([4]; Homo sapiens, SK-OV-3, Ovarian, assay set not specified): 0.012 µM; IC50 [4, 19]: 0.015 µM; IC50 ([4]; Homo sapiens, SK-OV-3, Ovarian, footnote 7: determined at same time as CEN08-180): 0.011 µM; IC50 [4, 11]: 0.045 µM; IC50 (H1299 (NSCLC) cell line; [20]): 0.008 µM; IC50 (H1299 (NSCLC) cell line; Homo sapiens, NCI-H1299, NSCLC, footnote 7: determined at same time as CEN08-180): 0.004 µM; IC50 (H1299 (NSCLC) cell line; [12]): 0.003 µM

With `CON(C1CCC2(C)C(CCC3C2CC(O)C2(C)C(C4=CC(=O)OC4)CCC32O)C1)C1OCC(O)C(O)C1O` (stereo not shown) [CEN07-117] as the compound, how does the IC50 [1, 13] read?
Its IC50 is 0.35 µM.

And the IC50 (A549 (NSCLC) cell line [2]; [13])?
Its IC50 is 0.34 µM.

What about the IC50 [3, 16] of the same compound?
Its IC50 is 0.44 µM.

And the IC50 [4, 21]?
Its IC50 is 0.55 µM.

And the IC50 (H1299 (NSCLC) cell line; [13])?
The IC50 was 0.5 µM.

Which results are given for `CON(C1C=C2CCC3C(CC[C@]4(C)[C@@H](c5ccc(=O)oc5)CC[C@]34O)[C@@]2(C)CC1)[C@H]1OC[C@H](N)[C@H](O)C1O` (stereo partly drawn) [CEN08-243, (3S)-3-N-methoxyamino-scillarenin-L-neo-4-amino-4-deoxyxyloside]?
IC50 [1, 17]: 0.005 µM; IC50 (A549 (NSCLC) cell line [2]; [18]): 0.003 µM; IC50 (human cancer cell lines): < 0.08 µM; IC50 [4, 19]: 0.005 µM; IC50 (H1299 (NSCLC) cell line; [20]): 0.007 µM

Which results are given for `CC12CCC(OC3OCC(O)C(O)C3O)C=C1CCC1C2CCC2(C)C(c3ccc(=O)oc3)CCC12O` (stereo not shown) [CEN08-190]?
IC50 ([1]; NSCLC, assay set not specified): 0.006 µM; IC50 (A549 (NSCLC) cell line [2]; NSCLC, assay set not specified): 0.004 µM; IC50 ([3]; Colorectal, assay set not specified): 0.006 µM; IC50 [4, 22]: 0.028 µM; IC50 (H1299 (NSCLC) cell line; NSCLC, assay set not specified): 0.004 µM

What does the source list for `CON(C1OC[C@H](N)[C@H](O)[C@@H]1O)[C@@H]1C=C2CCC3C(CC[C@]4(C)[C@@H](c5ccc(=O)oc5)CC[C@]34O)[C@@]2(C)CC1` (stereo partly drawn) [CEN08-244, (3S)-3-N-methoxyamino-scillarenin-L-neo-4-amino-4-deoxyriboside]?
IC50 [1, 17]: 0.006 µM; IC50 (A549 (NSCLC) cell line [2]; [18]): 0.004 µM; IC50 (human cancer cell lines): < 0.08 µM; IC50 [4, 19]: 0.006 µM; IC50 (H1299 (NSCLC) cell line; [20]): 0.01 µM

Which results are given for `CON(C1CCC2(C)C(CCC3C2CCC2(C)C(C4=CC(=O)OC4)CCC32O)C1)C1OCC(N)C(O)C1O` (stereo not shown) [CEN08-242]?
IC50 ([1]; NSCLC, assay set not specified): 0.074 µM; IC50 (A549 (NSCLC) cell line [2]; NSCLC, assay set not specified): 0.05 µM; IC50 [4, 22]: 0.228 µM; IC50 (H1299 (NSCLC) cell line; NSCLC, assay set not specified): 0.159 µM

Which results are given for `CON(C1CCC2(C)C(CCC3C2CC(O)C2(C)C(C4=CC(=O)OC4)CCC32O)C1)C1OCC(O)C(O)C1O` (stereo not shown) [CEN07-121]?
IC50 [1, 13]: 0.16 µM; IC50 (A549 (NSCLC) cell line [2]; [13]): 0.15 µM; IC50 [3, 16]: 0.23 µM; IC50 [4, 21]: 0.3 µM; IC50 (H1299 (NSCLC) cell line; [13]): 0.43 µM
